Test results: patent publication US12377110B2, “Fospropofol methods and compositions” (Epalex Corporation, priority 2019, dated 2025)

How the values were obtained:
[1] = Study No. 15-4 toxicokinetics of fospropofol and propofol in plasma; type: in vivo, Beagle dogs; details: for Tmax: read-out: Fospropofol Tmax; for AUC(0-t): read-out: Fospropofol AUC0-6 hr
Method: The purpose of Study No. 15-4 (GLP) was to determine the potential toxicity of fospropofol in Beagle dogs when administered once daily by oral gavage for 14 days. […] Because the treatment-related clinical observations (consistent with the expected transient sedative actions of fospropofol) and effects on hematology and clinical chemistry parameters were considered nonadverse, the NOAEL was determined to be 160 mg/kg/day (3200 mg/m^2/day).

[2] = Study A16 Part 2: PK of a single dose of 1200 mg fospropofol disodium following a high-fat meal; type: in vivo, human
Method: Part 2 of Study A16 was a double-blind, placebo-controlled, single-close pilot study to investigate the PK, safety, and tolerability of 1200 mg of fospropofol disodium administered to healthy adult men and women following a high-fat meal.
Subjects were healthy adults (age 18-55 years inclusive, BMI 18-29.9 kg/m^2). A separate cohort of 15 subjects was randomly assigned to receive a single oral dose of either fospropofol disodium (n=12) or matching placebo (n=3) within 30 minutes (±1 minute) after the start of a standardized high-fat meal.
Subjects were admitted to the clinical unit for an overnight fast (Day −1), administered study drug on Day 1 within 30 minutes of the start a standardized high-fat meal, and remained in the clinical unit until Day 2.
Fospropofol disodium was formulated as powder in 6 HPMC capsules, each capsule containing 200 mg of fospropofol disodium (weight adjusted for water content). Placebo was administered as 6 matching capsules.

[3] = Study No. 15-3 toxicokinetics of fospropofol and propofol in plasma; type: in vivo, Sprague-Dawley rats; details: for AUC(0-t) / Cmax / Tmax: Sprague-Dawley, rat, plasma, po, oral gavage fospropofol disodium; for AUC(0-t): read-out: Fospropofol AUC0-6 hr; for Cmax: read-out: Fospropofol Cmax; for Tmax: read-out: Fospropofol Tmax
Method: The purpose of Study No. 15-3 (GLP) was to determine the potential toxicity of fospropofol in Sprague-Dawley rats when administered once daily by oral gavage for 14 days. […] The cause of death for the three 250 mg/kg/day group main study females found dead could not be determined, but was considered related to the pharmacodynamic effects of fospropofol, based on the time of death relative to the time of close administration, and the clinical signs recorded before death. Clinical observations during the closing period for these animals included labored breathing, prostrate, splayed hindlimbs, uncoordinated movement, decreased activity, and eyes closed.

[4] = female, beagle, dog, plasma, po, 50 mg/kg, oral gavage fospropofol disodium, Female, 50 mg/kg, Day 1
[5] = female, beagle, dog, plasma, po, 50 mg/kg, oral gavage fospropofol disodium, Female, 50 mg/kg, Day 14
[6] = female, beagle, dog, plasma, po, 100 mg/kg, oral gavage fospropofol disodium, Female, 100 mg/kg, Day 1
[7] = female, beagle, dog, plasma, po, 100 mg/kg, oral gavage fospropofol disodium, Female, 100 mg/kg, Day 14
[8] = female, beagle, dog, plasma, po, 160 mg/kg, oral gavage fospropofol disodium, Female, 160 mg/kg, Day 1
[9] = female, beagle, dog, plasma, po, 160 mg/kg, oral gavage fospropofol disodium, Female, 160 mg/kg, Day 14
[10] = male, beagle, dog, plasma, po, 50 mg/kg, oral gavage fospropofol disodium, Male, 50 mg/kg, Day 1
[11] = male, beagle, dog, plasma, po, 50 mg/kg, oral gavage fospropofol disodium, Male, 50 mg/kg, Day 14
[12] = male, beagle, dog, plasma, po, 100 mg/kg, oral gavage fospropofol disodium, Male, 100 mg/kg, Day 1
[13] = male, beagle, dog, plasma, po, 100 mg/kg, oral gavage fospropofol disodium, Male, 100 mg/kg, Day 14
[14] = male, beagle, dog, plasma, po, 160 mg/kg, oral gavage fospropofol disodium, Male, 160 mg/kg, Day 1
[15] = male, beagle, dog, plasma, po, 160 mg/kg, oral gavage fospropofol disodium, Male, 160 mg/kg, Day 14
[16] = female, 50 mg/kg, Female, 50 mg/kg, Day 1
[17] = female, 50 mg/kg, Female, 50 mg/kg, Day 14
[18] = female, 100 mg/kg, Female, 100 mg/kg, Day 1
[19] = female, 100 mg/kg, Female, 100 mg/kg, Day 14
[20] = female, 250 mg/kg, Female, 250 mg/kg, Day 1
[21] = female, 250 mg/kg, Female, 250 mg/kg, Day 14
[22] = male, 50 mg/kg, Male, 50 mg/kg, Day 1
[23] = male, 50 mg/kg, Male, 50 mg/kg, Day 14
[24] = male, 100 mg/kg, Male, 100 mg/kg, Day 1
[25] = male, 100 mg/kg, Male, 100 mg/kg, Day 14
[26] = male, 250 mg/kg, Male, 250 mg/kg, Day 1
[27] = male, 250 mg/kg, Male, 250 mg/kg, Day 14

## CC(C)c1cccc(C(C)C)c1OCOP(=O)(O)O [fospropofol, (2,6-diisopropylphenoxy)methyl dihydrogen phosphate]
[1]; 50, 100, and 160 mg/kg/day for 14 days
  Sex differences in fospropofol Cmax or AUC0-6h: no clear sex differences
[1]; Beagle, dog, plasma, oral, range over all groups
  Tmax: 5 to 60 min
[1]; Days 1 and 14, males and females (except females on Day 14)
  Increase of fospropofol Cmax and AUC0-6hr with dose: less than close proportional
[1]; both sexes, Beagle, dog, plasma, oral, males and females, read-out: Fospropofol apparent individual terminal half-lives
  half-life: 18 to 36 min
[1]; [4]
  Cmax: 3680 ng/mL
  AUC(0-t): 4710 ng·h/mL
  Tmax: 30 to 60 min
[1]; [5]
  Cmax: 3770 ng/mL
  AUC(0-t): 5730 ng·h/mL
  Tmax: 30 to 60 min
[1]; [6]
  Cmax: 10100 ng/mL
  AUC(0-t): 11900 ng·h/mL
  Tmax: 15 to 30 min
[1]; [7]
  Cmax: 9310 ng/mL
  AUC(0-t): 15100 ng·h/mL
  Tmax: 30 to 60 min
[1]; [8]
  Cmax: 7380 ng/mL
  AUC(0-t): 11200 ng·h/mL
  Tmax: 15 to 60 min
[1]; [9]
  Cmax: 12700 ng/mL
  AUC(0-t): 16000 ng·h/mL
  Tmax: 15 to 60 min
[1]; [10]
  Cmax: 5130 ng/mL
  AUC(0-t): 7710 ng·h/mL
  Tmax: 30 to 60 min
[1]; [11]
  Cmax: 3300 ng/mL
  AUC(0-t): 4860 ng·h/mL
  Tmax: 30 to 60 min
[1]; [12]
  Cmax: 9480 ng/mL
  AUC(0-t): 11700 ng·h/mL
  Tmax: 30 to 60 min
[1]; [13]
  Cmax: 6340 ng/mL
  AUC(0-t): 6340 ng·h/mL
  Tmax: 15 to 60 min
[1]; [14]
  Cmax: 10000 ng/mL
  AUC(0-t): 13500 ng·h/mL
  Tmax: 15 to 60 min
[1]; [15]
  Cmax: 6970 ng/mL
  AUC(0-t): 9000 ng·h/mL
  Tmax: 4.98 to 60 min
[2]; 1200 mg within 30 minutes after the start of a high-fat meal
  Effect of high-fat meal on exposure: significant reduction in exposure
[2]; 1200 mg, high-fat meal vs fasting
  Mean exposure to fospropofol (both Cmax and AUC) under fed conditions relative to fasting: approximately 24%
[2]; both sexes, human, plasma, oral, 1200 mg, fed, no appreciable effect, read-out: Fospropofol Tmax (median)
  Tmax: 20 min
[2]; both sexes, human, plasma, oral fospropofol disodium 1200 mg, Fed (Cohort 8), n = 10/12, mean, read-out: Fospropofol AUC0-∞
  AUC(0-inf): 1080 ng·h/mL
[2]; both sexes, human, plasma, oral fospropofol disodium 1200 mg, Fed (Cohort 8), n = 10/12, mean, read-out: Fospropofol t1/2 (converted)
  half-life: 15.6 min
[2]; both sexes, human, plasma, oral fospropofol disodium 1200 mg, Fed (Cohort 8), n= 12, mean
  Cmax: 1790 ng/mL
[2]; both sexes, human, plasma, oral fospropofol disodium 1200 mg, Fed (Cohort 8), n= 12, mean, read-out: Fospropofol AUC0-T
  AUC(0-t): 993 ng·h/mL
[2]; both sexes, human, plasma, oral fospropofol disodium 1200 mg, Fed (Cohort 8), n= 12, median, read-out: Fospropofol Tmax
  Tmax: 19.8 min
[2]; oral fospropofol disodium 1200 mg, Fed (Cohort 8), n = 10/12, mean
  Fospropofol CL/F: 4122 L/h
[3]; 50, 100, and 250 mg/kg/day, Day 1 and Day 14
  Increase of fospropofol Cmax and AUC0-6hr with dose: greater than close-proportional
[3]; [16]
  AUC(0-t): 166 ng·h/mL
  Cmax: 582 ng/mL
  Tmax: 4.98 min
[3]; [17]
  AUC(0-t): 160 ng·h/mL
  Cmax: 341 ng/mL
  Tmax: 15 min
[3]; [18]
  AUC(0-t): 827 ng·h/mL
  Cmax: 1630 ng/mL
  Tmax: 4.98 min
[3]; [19]
  AUC(0-t): 1170 ng·h/mL
  Cmax: 2560 ng/mL
  Tmax: 4.98 min
[3]; [20]
  AUC(0-t): 4630 ng·h/mL
  Cmax: 8400 ng/mL
  Tmax: 4.98 min
[3]; [21]
  AUC(0-t): 3810 ng·h/mL
  Cmax: 8440 ng/mL
  Tmax: 4.98 min
[3]; male and female rats
  Fospropofol AUC0-6hr following repeated administration: did not appear to change
[3]; [22]
  AUC(0-t): 97.1 ng·h/mL
  Cmax: 178 ng/mL
  Tmax: 4.98 min
[3]; [23]
  AUC(0-t): 96.9 ng·h/mL
  Cmax: 149 ng/mL
  Tmax: 4.98 min
[3]; [24]
  AUC(0-t): 386 ng·h/mL
  Cmax: 930 ng/mL
  Tmax: 4.98 min
[3]; [25]
  AUC(0-t): 370 ng·h/mL
  Cmax: 1360 ng/mL
  Tmax: 4.98 min
[3]; [26]
  AUC(0-t): 3720 ng·h/mL
  Cmax: 8510 ng/mL
  Tmax: 4.98 min
[3]; [27]
  AUC(0-t): 2130 ng·h/mL
  Cmax: 5020 ng/mL
  Tmax: 4.98 min
[3]; rats, 14 days oral gavage fospropofol disodium
  Dependence of systemic exposure on sex: greater exposure in females
